# Measured values: patent publication US11786513B2, “Compositions comprising berberine” (INDENA S.P.A., priority 2018, dated 2023)
# Columns and labels:
# [1] = oral administration; cited from earlier work
# [2] = Solubility test in simulated biological fluids (FaSSGF), UPLC; type: physicochemical; conditions: Fasted-State Simulated Gastric Fluid (FaSSGF), fassgf or other biorelevant, thermodynamic from solid, pH 1.6, samples containing equal amounts of BBR
# Procedure: The solubility test was conducted by comparing samples containing equal amounts of BBR. […] The analysis was conducted by the UPLC (Ultra High Performance Liquid Chromatography) method described below: ANALYSIS CONDITIONS: Flow rate: 0.4 ml/minute; Detection: 348 nm. SAMPLE SOLUTION: 30 mg in 200 ml (Chromatogram of a typical sample of ˜0.15 mg/ml, in FIG. 1). STANDARD SOLUTION: 10 mg of pure reference BBR in 200 ml of methanol (Standard solution ˜0.05 mg/ml, typical chromatogram in FIG. 2). The solubility test was conducted using Fasted-State Simulated Gastric Fluid (FaSSGF), prepared as reported below, as solvent. 1) Preparation of an NaCl/HCl solution for FaSSGF (1 litre): 2 g of NaCl was dissolved in […] of purified water, the pH was adjusted to 1.6 with HCl, and the mixture was made up to volume with purified water (1 litre). 2) 0.06 g of powder* (FaSSGF—Biorelevant media) was added to about 500 ml of the NaCl/HCl solution at room temperature and made up to volume (1 l) with the NaCl/HCl solution to obtain a clear, ready-for-use liquid. *Final sodium taurocholate 0.08 mM, final lecithin 0.02 mM
SMILES,fraction which reaches the systemic circulation [1],oral absorption [1],solubility [2]
"COc1ccc2cc3[n+](cc2c1OC)CCc1cc2c(cc1-3)OCO2 [BBR, Berberine]",0.36%,≤ 0.5 % of the administered dose,
"COc1ccc2cc3[n+](cc2c1OC)CCc1cc2c(cc1-3)OCO2 [Reference 1, berberine]",,,113 µg/mL
